# In ChEMBL document CHEMBL1125187, “3-Thienyl- and 3-furylaminobutyric acids. Synthesis and binding GABAB receptor studies” (J Med Chem, 1991):
# Experiments:
# [1] = target: GABA B receptor (Rattus norvegicus, UniProt O88871+Q9Z0U4); experiment: Inhibition of [3H]baclofen binding to rat gamma-aminobutyric acid type B receptor.; type: protein-complex assay
# [2] = target: GABA-A receptor; anion channel; experiment: Inhibition of [3H]muscimol binding to gamma-aminobutyric-acid A (GABA-A) receptor; type: protein-complex assay, Rattus norvegicus
# Chain of GABA B receptor (Q9Z0U4 whole entry): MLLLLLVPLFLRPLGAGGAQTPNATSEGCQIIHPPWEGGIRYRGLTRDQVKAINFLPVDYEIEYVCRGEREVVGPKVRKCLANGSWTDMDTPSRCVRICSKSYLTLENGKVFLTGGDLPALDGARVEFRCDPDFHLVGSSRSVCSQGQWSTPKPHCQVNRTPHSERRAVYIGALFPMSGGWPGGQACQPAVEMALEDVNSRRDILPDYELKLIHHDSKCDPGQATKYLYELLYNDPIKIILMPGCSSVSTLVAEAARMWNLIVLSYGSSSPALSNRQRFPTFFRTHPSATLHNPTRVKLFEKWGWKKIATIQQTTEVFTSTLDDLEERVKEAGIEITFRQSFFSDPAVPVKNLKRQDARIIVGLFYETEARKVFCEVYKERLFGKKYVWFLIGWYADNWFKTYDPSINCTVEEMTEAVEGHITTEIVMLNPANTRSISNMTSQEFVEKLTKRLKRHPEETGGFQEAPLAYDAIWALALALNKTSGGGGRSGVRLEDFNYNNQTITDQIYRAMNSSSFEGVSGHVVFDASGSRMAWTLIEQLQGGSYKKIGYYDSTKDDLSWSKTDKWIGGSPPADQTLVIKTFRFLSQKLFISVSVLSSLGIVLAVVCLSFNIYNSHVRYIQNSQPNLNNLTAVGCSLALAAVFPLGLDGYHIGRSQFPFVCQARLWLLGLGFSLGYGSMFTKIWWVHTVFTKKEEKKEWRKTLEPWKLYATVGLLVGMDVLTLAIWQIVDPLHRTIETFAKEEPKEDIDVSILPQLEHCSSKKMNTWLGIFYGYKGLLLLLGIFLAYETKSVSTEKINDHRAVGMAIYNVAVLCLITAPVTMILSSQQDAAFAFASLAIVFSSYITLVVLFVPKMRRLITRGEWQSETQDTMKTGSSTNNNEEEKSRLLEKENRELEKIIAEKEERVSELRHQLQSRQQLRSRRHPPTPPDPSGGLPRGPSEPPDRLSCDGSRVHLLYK
# Chain of GABA B receptor (O88871 whole entry): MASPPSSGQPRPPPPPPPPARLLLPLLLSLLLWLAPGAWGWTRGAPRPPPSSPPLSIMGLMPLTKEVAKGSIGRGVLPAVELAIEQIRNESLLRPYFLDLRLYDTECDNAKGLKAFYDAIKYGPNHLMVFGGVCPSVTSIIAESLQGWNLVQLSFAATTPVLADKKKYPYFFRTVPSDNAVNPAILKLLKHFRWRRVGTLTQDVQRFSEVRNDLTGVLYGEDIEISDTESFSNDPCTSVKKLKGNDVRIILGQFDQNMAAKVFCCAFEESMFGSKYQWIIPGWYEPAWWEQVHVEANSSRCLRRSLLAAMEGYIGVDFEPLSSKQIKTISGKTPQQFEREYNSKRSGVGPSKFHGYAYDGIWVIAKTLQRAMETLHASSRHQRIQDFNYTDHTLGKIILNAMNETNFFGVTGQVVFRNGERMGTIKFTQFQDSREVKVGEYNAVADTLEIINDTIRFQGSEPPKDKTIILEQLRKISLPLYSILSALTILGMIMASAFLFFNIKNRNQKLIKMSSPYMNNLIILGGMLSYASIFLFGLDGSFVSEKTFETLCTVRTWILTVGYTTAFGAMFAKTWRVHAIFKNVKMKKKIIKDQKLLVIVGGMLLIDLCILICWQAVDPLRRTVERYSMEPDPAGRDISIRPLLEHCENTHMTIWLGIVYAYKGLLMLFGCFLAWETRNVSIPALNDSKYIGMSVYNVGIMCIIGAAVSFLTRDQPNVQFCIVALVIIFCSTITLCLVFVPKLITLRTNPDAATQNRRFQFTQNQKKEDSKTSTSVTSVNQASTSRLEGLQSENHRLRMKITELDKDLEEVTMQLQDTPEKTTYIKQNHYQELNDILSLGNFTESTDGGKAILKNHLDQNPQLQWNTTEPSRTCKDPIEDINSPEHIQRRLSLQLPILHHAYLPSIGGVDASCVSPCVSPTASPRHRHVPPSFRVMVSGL
SMILES,IC50 [1],IC50 [2]
NC[C@H](CC(=O)O)c1ccc(F)cc1,1.33 µM,–
Cc1ccsc1C(CN)CC(=O)O (centres undefined),124 µM,> 100 µM
NCC(CC(=O)O)c1ccc(Br)s1 (centres undefined),1.86 µM,> 100 µM
NCC(CC(=O)O)c1ccc(O)cc1 (centres undefined),> 100 µM,–
NCC(CC(=O)O)c1cccs1 (centres undefined),9.72 µM,> 100 µM
NCC(CC(=O)O)c1cccc(Cl)c1 (centres undefined),20 µM,–
NCC(CC(=O)O)c1cc(Br)cs1 (centres undefined),39.1 µM,> 100 µM
Cc1ccc(C(CN)CC(=O)O)o1 (centres undefined),> 100 µM,> 100 µM
NCC(CC(=O)O)c1ccccc1Cl (centres undefined),0.8 µM,–
NCC(CC(=O)O)c1ccco1 (centres undefined),> 100 µM,> 100 µM
NCC(CC(=O)O)c1cc(Cl)cs1 (centres undefined),45.3 µM,> 100 µM
Cc1ccc(C(CN)CC(=O)O)s1 (centres undefined),1.34 µM,> 100 µM
NCC(CC(=O)O)c1ccsc1 (centres undefined),20.9 µM,> 100 µM
NCC(CC(=O)O)c1ccc(Cl)s1 (centres undefined) [4-AMINO-3- (5-CHLOROTHIEN-2-YL)BUTANOIC ACID],0.61 µM,> 100 µM
